Assay results reported in PubChem BioAssay AID248 (DTP/NCI, 2004).
Several values for one entry are separate records, joined by “and”; a condition that tells them apart may be missing. Equal values may be shown once. Toxic doses and inconclusive results are not listed. Cut-off read from the data, not from the text of the source: active = T/C of 150% or more; inactive = T/C below 125%.

Tested on: L1210 leukemia ip in BDF1 mice, survival T/C
Assay: NCI In Vivo Anticancer Drug Screen. Data for tumor model L1210 Leukemia (intraperitoneal) in B6D2F1 (BDF1) mice
Details: endpoint: mean survival time, higher = longer survival
Summary of the method: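 Ratio derived from survival: compound-dosed mice over vehicle-dosed mice, all bearing a transplantable tumor.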

[1] = dose: 100.0 mg/kg/injection, schedule: Q01DX001 (ip), vehicle: saline
[2] = dose: 100.0 mg/kg/injection, schedule: Q04DX003 (ip), vehicle: saline
[3] = dose: 200.0 mg/kg/injection, schedule: Q01DX001 (ip), vehicle: saline
[4] = dose: 400.0 mg/kg/injection, schedule: Q01DX001 (ip), vehicle: saline
[5] = dose: 100.0 mg/kg/injection, schedule: Q01DX009 (ip), vehicle: Klucel (hydroxypropylcellulose) (HPC)
[6] = dose: 100.0 mg/kg/injection, schedule: Q04DX003 (ip), vehicle: Klucel (hydroxypropylcellulose) (HPC)
[7] = dose: 200.0 mg/kg/injection, schedule: Q01DX009 (ip), vehicle: Klucel (hydroxypropylcellulose) (HPC)
[8] = dose: 200.0 mg/kg/injection, schedule: Q04DX003 (ip), vehicle: Klucel (hydroxypropylcellulose) (HPC)
[9] = dose: 400.0 mg/kg/injection, schedule: Q04DX003 (ip), vehicle: Klucel (hydroxypropylcellulose) (HPC)
[10] = dose: 100.0 mg/kg/injection, schedule: Q01DX009 (ip), vehicle: saline
[11] = dose: 200.0 mg/kg/injection, schedule: Q01DX009 (ip), vehicle: saline
[12] = dose: 200.0 mg/kg/injection, schedule: Q04DX003 (ip), vehicle: saline
[13] = dose: 400.0 mg/kg/injection, schedule: Q01DX009 (ip), vehicle: saline
[14] = dose: 400.0 mg/kg/injection, schedule: Q04DX003 (ip), vehicle: saline
[15] = dose: 100.0 mg/kg/injection, schedule: Q04DX002 (ip), vehicle: Klucel (hydroxypropylcellulose) (HPC)
[16] = dose: 200.0 mg/kg/injection, schedule: Q04DX002 (ip), vehicle: Klucel (hydroxypropylcellulose) (HPC)
[17] = dose: 400.0 mg/kg/injection, schedule: Q04DX002 (ip), vehicle: Klucel (hydroxypropylcellulose) (HPC)
[18] = dose: 100.0 mg/kg/injection, schedule: Q01DX001 (ip), vehicle: carboxymethylcellulose (CMC)
[19] = dose: 200.0 mg/kg/injection, schedule: Q01DX001 (ip), vehicle: carboxymethylcellulose (CMC)
[20] = dose: 400.0 mg/kg/injection, schedule: Q01DX001 (ip), vehicle: carboxymethylcellulose (CMC)

Measured: T/C

CC1=CC(O)Nc2c(CBr)cccc21 (centres undefined)
inactive: dose: 25.0 mg/kg/injection, schedule: Q01DX009 (ip), vehicle: saline with Tween-80 97 % of control | dose: 50.0 mg/kg/injection, schedule: Q01DX009 (ip), vehicle: saline with Tween-80 103 % of control | [1] 107 % of control | [2] 101 % of control | [3] 95 % of control | [4] 91 % of control

CCN(CC)S(=O)(=O)c1ccc(OC)c(NC(=O)c2ccc(C(=O)Nc3cc(S(=O)(=O)N(CC)CC)ccc3OC)cc2)c1
inactive: [1] 97 % of control | [3] 94 % of control | [4] 102 % of control

OCC(O)C(O)C(O)C(O)C(c1ccccc1)c1ccccc1 (centres undefined)
inactive: dose: 50.0 mg/kg/injection, schedule: Q01DX001 (ip), vehicle: saline 107 % of control | [1] 103 % of control | [3] 101 % of control | [4] 101 % of control

Cc1nc2ccc(Cl)c(Cl)c2s1
inactive: dose: 100.0 mg/kg/injection, schedule: Q01DX001 (ip), vehicle: saline with Tween-80 106 % of control | dose: 200.0 mg/kg/injection, schedule: Q01DX001 (ip), vehicle: saline with Tween-80 104 % of control | dose: 400.0 mg/kg/injection, schedule: Q01DX001 (ip), vehicle: saline with Tween-80 100 % of control

CC(=O)c1ccc(CC2CCC2)cc1
inactive: dose: 75.0 mg/kg/injection, schedule: Q01DX009 (ip), vehicle: Klucel (hydroxypropylcellulose) (HPC) 97 % of control | dose: 150.0 mg/kg/injection, schedule: Q01DX009 (ip), vehicle: Klucel (hydroxypropylcellulose) (HPC) 112 % of control | dose: 300.0 mg/kg/injection, schedule: Q01DX009 (ip), vehicle: Klucel (hydroxypropylcellulose) (HPC) 110 % of control

O=C(O)/C=C/c1nc2ccccc2c(=O)[nH]1
inactive: dose: 50.0 mg/kg/injection, schedule: Q01DX009 (ip), vehicle: Klucel (hydroxypropylcellulose) (HPC) 114 % of control | [5] 100 % of control

CC(C)c1ccc(N2C(=O)CSC2=S)cc1
inactive: dose: 100.0 mg/kg/injection, schedule: Q04DX002 (ip), vehicle: saline with Tween-80 97 % of control | dose: 200.0 mg/kg/injection, schedule: Q04DX002 (ip), vehicle: saline with Tween-80 87 % of control

O=[N+]([O-])c1ccc(Cl)c(O)c1
inactive: dose: 25.0 mg/kg/injection, schedule: Q01DX009 (ip), vehicle: carboxymethylcellulose (CMC) 108 % of control | dose: 50.0 mg/kg/injection, schedule: Q01DX009 (ip), vehicle: carboxymethylcellulose (CMC) 106 % of control | dose: 100.0 mg/kg/injection, schedule: Q01DX009 (ip), vehicle: carboxymethylcellulose (CMC) 97 % of control

CC(=O)Nc1ccc(OCCCCOc2ccccc2)cc1
inactive: [5] 87 % of control | [6] 103 % of control | [7] 97 % of control | [8] 100 % of control | dose: 400.0 mg/kg/injection, schedule: Q01DX009 (ip), vehicle: Klucel (hydroxypropylcellulose) (HPC) 92 % of control | [9] 97 % of control

O=C1CCN2C=CC=CC2=N1
inactive: [10] 98 % of control | [2] 100 % of control | [11] 93 % of control | [12] 101 % of control | [13] 97 % of control | [14] 106 % of control

CCN(CC)C1CCC(NC(C)=O)CC1 (centres undefined)
inactive: [10] 108 % of control | [2] 105 % of control and 97 % of control | [11] 107 % of control | [12] 96 % of control and 99 % of control | [13] 86 % of control | [14] 101 % of control

CN(CCC[N+](C)(C)C)C(=O)C(c1ccccc1)c1ccccc1
inactive: [2] 100 % of control

O=C(Nc1cccc([N+](=O)[O-])c1)Nc1cccc(C(F)(F)F)c1
inactive: [15] 101 % of control | [16] 99 % of control | [17] 96 % of control

C=CCC1(C(=C)C)C(=O)NC(=O)NC1=O
inactive: dose: 75.0 mg/kg/injection, schedule: Q01DX001 (ip), vehicle: carboxymethylcellulose (CMC) 97 % of control | dose: 150.0 mg/kg/injection, schedule: Q01DX001 (ip), vehicle: carboxymethylcellulose (CMC) 93 % of control | dose: 300.0 mg/kg/injection, schedule: Q01DX001 (ip), vehicle: carboxymethylcellulose (CMC) 111 % of control

CN(C)C=Nc1ccc2c3c(cccc13)CC2
inactive: dose: 6.25 mg/kg/injection, schedule: Q04DX003 (ip), vehicle: saline with Tween-80 103 % of control | dose: 12.5 mg/kg/injection, schedule: Q04DX003 (ip), vehicle: saline with Tween-80 88 % of control | dose: 25.0 mg/kg/injection, schedule: Q04DX003 (ip), vehicle: saline with Tween-80 98 % of control

COc1ccc(/C=N/O)c(C)c1OC
inactive: [1] 98 % of control | [3] 96 % of control | [4] 96 % of control

COC1CC=CC2=C1CCC1C2CC2C(=O)C1(C)CCC2O (centres undefined)
inactive: [2] 94 % of control | [12] 100 % of control | [14] 97 % of control

CC(C)(C)OC(=O)N1CCCC1C(=O)O (centres undefined)
inactive: [18] 109 % of control | [19] 104 % of control | [20] 95 % of control

O=C1C=C(c2ccccc2)Sc2ccccc2N1
inactive: dose: 100.0 mg/kg/injection, schedule: Q04DX003 (ip), vehicle: saline with Tween-80 97 % of control | dose: 200.0 mg/kg/injection, schedule: Q04DX003 (ip), vehicle: saline with Tween-80 100 % of control | dose: 400.0 mg/kg/injection, schedule: Q04DX003 (ip), vehicle: saline with Tween-80 97 % of control

NC(=S)N/N=C/c1c[nH]c2ccccc12
inactive: [5] 95 % of control | [6] 87 % of control | [7] 97 % of control | [8] 96 % of control | [9] 94 % of control

CCN(CC)CCCN1c2ccccc2Sc2ccc(Cl)cc21
inactive: dose: 1.56 mg/kg/injection, schedule: Q01DX009 (ip), vehicle: saline 102 % of control | dose: 3.12 mg/kg/injection, schedule: Q01DX009 (ip), vehicle: saline 98 % of control | dose: 6.25 mg/kg/injection, schedule: Q01DX009 (ip), vehicle: saline 96 % of control | dose: 12.5 mg/kg/injection, schedule: Q01DX009 (ip), vehicle: saline 103 % of control | dose: 12.5 mg/kg/injection, schedule: Q04DX003 (ip), vehicle: saline 102 % of control | dose: 25.0 mg/kg/injection, schedule: Q04DX003 (ip), vehicle: saline 109 % of control

COc1ccc(Cl)c(C(=O)O)c1
inactive: [15] 114 % of control | [16] 114 % of control | [17] 103 % of control

CCC(CO)NC1CCCC1 (centres undefined)
inactive: dose: 75.0 mg/kg/injection, schedule: Q01DX001 (ip), vehicle: acid diluted with saline 100 % of control | dose: 150.0 mg/kg/injection, schedule: Q01DX001 (ip), vehicle: acid diluted with saline 100 % of control | dose: 300.0 mg/kg/injection, schedule: Q01DX001 (ip), vehicle: acid diluted with saline 100 % of control

O=C1O/C(=C2\OCc3ccccc32)c2ccccc21
inactive: dose: 50.0 mg/kg/injection, schedule: Q01DX001 (ip), vehicle: carboxymethylcellulose (CMC) 91 % of control | [18] 107 % of control | [19] 100 % of control | [20] 91 % of control

CSc1ncnc2c1cnn2C1OC(CCC#N)C(O)C1O (centres undefined)
inactive: [1] 97 % of control | [3] 98 % of control
